{"source": "patent US9992989B2", "about": "“Dual action lethal containers, systems, methods and compositions for killing adult mosquitos and larvae” (University of Florida Research Foundation, Inc., priority 2012, dated 2018)", "key": {"Aedes aegypti": {"system": "Aedes aegypti", "assay": "Adult mosquito mortality on aged insecticidal coatings on wood panels (Protocol A)", "assay_type": "in vivo", "conditions": "24 h exposure, independent of aging for approximately 2 years (FIG. 7)", "protocol": "(§1) The following protocols A, B, C and D list the flowchart methodologies for experiments that were conducted for evaluating the different coatings used. • A. Flowchart of methodology in the evaluation of adulticide coating includes the steps of: • i. Obtain preferred coating basis; • ii. Add adulticide (pyrethroids) and, if desired, an additive (CARBONXIDE™) to formulate different formulations of insecticides; • iii. Add coating on wood panels; • iv. Age wood panels in simulated environmental conditions; • v. Prepare housing for adult mosquitoes • a Place a 4-oz plastic cup upside down on coated wood panels; • vi. Place adult mosquitoes in the housing cup to expose them to insecticidal coating; • vii. Measure mosquito mortality in 1-hour, 2-hour, and 24-hour after exposure; • viii. Collect data and perform statistical analysis to determine effectiveness of adulticide coating. • B. Flowchart of methodology in the evaluation of larvicide coating can include: • i. Obtain preferred coating basis; • ii. Add larvicide (insect growth regulators) and, if desired, an additive (CARBONXIDE™); • iii. Coat filter paper and let air dry for 1-3 days; • iv. Prepare housing for larval mosquitoes; • a. Place coated filter paper in 4-oz glass jars; • b. Fill jars with unchlorinated or distilled water; • v. Place larval mosquitoes on the jars; • vi. […]"}, "Aedes albopictus": {"system": "Aedes albopictus", "assay": "Adult mosquito mortality on aged insecticidal coatings on wood panels (Protocol A)", "assay_type": "in vivo", "conditions": "24 h exposure, independent of aging for approximately 2 years (FIG. 8)", "protocol": "as §1"}, "mosquito larvae": {"system": "mosquito larvae", "assay": "Dual-action ovitrap test, larval survival (Protocol D)", "assay_type": "in vivo", "conditions": "for Mosquito larval survival / mortality versus hours of exposure: larvae in water of ovitrap treated with coating (FIGS. 9-11)", "protocol": "The following protocols A, B, C and D list the flowchart methodologies for experiments that were conducted for evaluating the different coatings used. • A. Flowchart of methodology in the evaluation of adulticide coating includes the steps of: • i. Obtain preferred coating basis; • ii. Add adulticide (pyrethroids) and, if desired, an additive (CARBONXIDE™) to formulate different formulations of insecticides; • iii. Add coating on wood panels; • iv. Age wood panels in simulated environmental conditions; • v. Prepare housing for adult mosquitoes • a Place a 4-oz plastic cup upside down on coated wood panels; • vi. Place adult mosquitoes in the housing cup to expose them to insecticidal coating; • vii. Measure mosquito mortality in 1-hour, 2-hour, and 24-hour after exposure; • viii. Collect data and perform statistical analysis to determine effectiveness of adulticide coating. • B. Flowchart of methodology in the evaluation of larvicide coating can include: • i. Obtain preferred coating basis; • ii. Add larvicide (insect growth regulators) and, if desired, an additive (CARBONXIDE™); • iii. Coat filter paper and let air dry for 1-3 days; • iv. Prepare housing for larval mosquitoes; • a. Place coated filter paper in 4-oz glass jars; • b. Fill jars with unchlorinated or distilled water; • v. Place larval mosquitoes on the jars; • vi. Measure mosquito larva mortality in 12-hour intervals until all are dead or emerged as adults; • vii. Collect data and perform statistical analysis to determine effectiveness of adulticide coating. • C. Flowchart of methodology in evaluation of adulticide coating as applied in lethal ovitrap can include: • i. Obtain preferred coating basis; • ii. Add adulticide (pyrethroids) and, if desired an additive (CARBONXIDE™); • iii. Coat filter paper and let air dry for 1-3 days; • iv. Prepare oviposition cup; • a. Place coated filter paper in a 4-oz plastic cup; • b. Fill cup halfway with unchlorinated or distilled water; • v. Prepare housing for gravid (“pregnant”) females; • a. Cut a 1-inch hole on the side of a 3-gallon bucket; • b. Cover hole with ½ in foam; • vi. […]"}, "[1]": {"system": "gravid females (adult mosquitoes)", "assay": "Dual-action ovitrap test, adult survival (Protocol D)", "assay_type": "in vivo, mosquito", "conditions": "gravid females exposed to ovitrap treated with coating (FIGS. 9-11)", "protocol": "as §1"}}}
{"smiles": "CC1(C)C(C=C(Cl)Cl)C1C(=O)OCc1cccc(Oc2ccccc2)c1", "note": "(stereo not shown) [permethrin]", "values": [{"measurement": "Percent of Adult Mosquito Mortality", "setting": "Aedes aegypti", "value": 100, "unit": "%"}, {"measurement": "Percent of Adult Mosquito Mortality", "setting": "Aedes albopictus", "value": 100, "unit": "%"}, {"measurement": "Mosquito larval survival / mortality versus hours of exposure", "setting": "mosquito larvae", "value": "killed rapidly"}, {"measurement": "Adult survival / mortality versus hours of exposure", "setting": "[1]", "value": "Adult mortality does not occur until after the females have started laying eggs"}]}
{"smiles": "CC(COc1ccc(Oc2ccccc2)cc1)Oc1ccccn1", "note": "(stereo not shown) [pyriproxyfen]", "values": [{"measurement": "Pupal development / adult emergence from larvae", "setting": "mosquito larvae; larvae in ovitrap treated with coating (FIG. 11)", "value": "adults never emerge"}, {"measurement": "Mosquito larval survival / mortality versus hours of exposure", "setting": "mosquito larvae", "value": "killed rapidly when they start molting into the pupal stage"}, {"measurement": "Adult survival / mortality versus hours of exposure", "setting": "[1]", "value": "only normal mortality"}]}
